{
  "source": "patent US8168677B2",
  "about": "“Method for treatment of inflammatory bowel disease” (Kemphys Ltd., priority 2005, dated 2012)",
  "key": {"[1]": {"test_system": "rat model of inflammatory bowel disease (DNBS instilled intracolonically)", "experiment": "Evaluation of retinoids which bind to RAR and RXR using DNBS-induced rat model of inflammatory bowel disease (Example 2)", "format": "in vivo, Wistar rats", "conditions": "for Bowel Inflammation Score [average]: 24 h and 2 h before DNBS and once daily for 5 days, macroscopic score 0-10, N = 5; for Presence or Absence of Adhesion (in five rats per group): number of animals with adhesion", "experimental": "Male or female Wistar rats weighing 200±5 g were used to create an animal model of inflammatory bowel disease. After the animals were fasted for 24 hours, DNBS (2,4-Dinotrobenzenesulfonic Acid, 30 mg in 0.5 ml 30% ethanol) was instilled intracolonically through the anus. As the medicaments of the present invention, 4-[2,3-(2,5-dimethyl-2,5-hexano)dibenzo[b,f][1,4]thiazepin-11-yl] benzoic acid (HX630) at 3 mg/kg, 4-(5H-7,8,9,10-tetrahydro-5,7,7,10,10-pentamethylbenzo[e]naphtho[2,3-b][1,4]diazepin-13-yl)benzoic acid (LE135) at 5 mg/kg, or a combination of 0.1 mg/kg of Am80 and 3 mg/kg of HX630 were used, and as a comparative example (positive control drug), 300mg/kg of salazosulfapyridine (SASP) as a commercially available drug for ulcerative colitis was used, and each drug was administered 24 hours before and 2 hours before the DNBS infusion, and once daily for 5 days after 24 hours from the infusion. Each drug was administered orally as a suspension in 0.5% carboxymethylcellulose. For the control group, the solvent was administered orally according to the same schedule. The animals were subjected to anatomic examination 24 hours after the final administration, and a degree of bowel inflammation was observed. For each of the Tamibarotene-administered group, SASP-administered group, the normal group, and the control group, five rats were used.\n(§1) The results are indicated as the scores of bowel inflammation (average), weight of the colon per unit body weight (100 g body weight) (average±standard error), and the number of animals in each group that gave adhesion. The scoring of bowel inflammation were conducted by visual observation according to the method of judgment described in the reference (Am. J. Physiol., 258: G527-34, 1990). • Score of Bowel Ulceration and Inflammation (Macroscopic) • Score: observation • 0: Normal; • 1: Localized hyperemia, no ulcers; • 2: Ulceration without hyperemia or colonic wall thickening; • 3: Inflammation and ulceration at one site; • 4: Ulcers and Inflammations at two or more sites; • 5: A major damaged site extending in 1 cm or longer along the direction of the colon length; and • 6-10: When a major damaged site extends in 2 cm or longer along the direction of the colon length, a score is increased by one for each additional 1 cm over 2 cm."}, "[2]": {"test_system": "model rat of inflammatory bowel disease (DNBS instilled intracolonically)", "experiment": "Evaluation of Am80 using DNBS-induced model rat of inflammatory bowel disease (Example 1)", "format": "in vivo, Wistar rats", "conditions": "for Presence or Absence of Adhesion (in five rats per group): number of animals with adhesion", "experimental": "Male or female Wistar rats weighing 200±5 g were used to create an animal model of inflammatory bowel disease. After the animals were fasted for 24 hours, DNBS (2,4-Dinotrobenzenesulfonic Acid, 30 mg in 0.5 ml 30% ethanol) was instilled intracolonically through the anus. Each of 4-[(5,6,7,8-tetrahydro-5,5,8,8-tetramethyl-2-naphthalenyl)carbamoyl]benzoic acid (Am80, generic name: Tamibarotene) as the medicament of the present invention so as to be a dose at 0.3 mg/kg, and salazosulfapyridine (SASP), a commercially available drug for ulcerative colitis, as a comparative example (positive control drug) so as to be a dose at 300 mg/kg was administered 24 hours before and 2 hours before the DNBS infusion, and once daily for 5 days after 24 hours from the infusion. Tamibarotene or SASP was each administered orally as a suspension in 0.5% carboxymethylcellulose. For the control group, the solvent was administered orally according to the same schedule as that for SASP. The animals were subjected to anatomic examination 24 hours after the final administration, and a degree of bowel inflammation was observed. For each of the Tamibarotene-administered group, SASP-administered group, the normal group, and the control group, five rats were used.\nas §1, with “of the bowel per unit” for “of the colon per unit”"}},
  "note": "“And” between values parts separate entries of the source, which are not always exact repeats. Equal entries are not always repeated.",
  "data": [
    {"smiles": "CC1(C)CCC(C)(C)c2cc3c(cc21)Sc1ccccc1N=C3c1ccc(C(=O)O)cc1", "note": "[HX630, 4-[2,3-(2,5-dimethyl-2,5-hexano)dibenzo[b,f][1,4]thiazepin-11-yl] benzoic acid]", "values": [
      {"measurement": "Bowel Inflammation Score [average]", "setting": "[1]; HX630 3 mg/kg oral", "result": 3.4},
      {"measurement": "Presence or Absence of Adhesion (in five rats per group)", "setting": "[1]; HX630 3 mg/kg oral", "result": "1/5"}
    ]},
    {"smiles": "CN1c2cc3c(cc2N=C(c2ccc(C(=O)O)cc2)c2ccccc21)C(C)(C)CCC3(C)C", "note": "[LE135, 4-(5H-7,8,9,10-tetrahydro-5,7,7,10,10-pentamethylbenzo[e]naphtho[2,3-b][1,4]diazepin-13-yl)benzoic acid]", "values": [
      {"measurement": "Bowel Inflammation Score [average]", "setting": "[1]; LE135 5 mg/kg oral", "result": 2.4},
      {"measurement": "Presence or Absence of Adhesion (in five rats per group)", "setting": "[1]; LE135 5 mg/kg oral", "result": "0/5"}
    ]},
    {"smiles": "O=C(O)c1cc(/N=N/c2ccc(S(=O)(=O)Nc3ccccn3)cc2)ccc1O", "note": "[SASP, salazosulfapyridine]", "values": [
      {"measurement": "Bowel Inflammation Score [average]", "setting": "[2]; SASP 300 mg/kg oral, 24 h and 2 h before DNBS and once daily for 5 days, macroscopic score 0-10, N = 5", "result": 2},
      {"measurement": "Colon weight/100 g body weight [average]", "setting": "[2]; SASP 300 mg/kg oral, average ± standard error, N = 5", "result": "0.682 ± 0.023"},
      {"measurement": "Presence or Absence of Adhesion (in five rats per group)", "setting": "[2]; SASP 300 mg/kg oral", "result": "2/5"}
    ]},
    {"smiles": "CC1(C)CCC(C)(C)c2cc(NC(=O)c3ccc(C(=O)O)cc3)ccc21", "note": "[Tamibarotene, 4-[(5,6,7,8-tetrahydro-5,5,8,8-tetramethyl-2-naphthalenyl)carbamoyl]benzoic acid]", "values": [
      {"measurement": "Presence or Absence of Adhesion (in five rats per group)", "setting": "[2]; Tamibarotene 0.3 mg/kg oral", "result": "significantly suppressed and 0/5"}
    ]}
  ]
}
